Experiments:
[1] = target: T1, humanMTH1 (aminoacids 42 to 197) (Homo sapiens, UniProt P36639); assay: Binding affinities and kinetics on MTH1 surfaces by surface plasmon resonance (SPR); settings: SPR, Biacore4000, 25° C.; Table 1, grouped; read-out: KD IC50
T1 construct: humanMTH1 (aminoacids 42 to 197); His tag at the N-terminus; purchased Abnova ab99390; host or cells: E. coli
Description: The SPR experiments were performed using a Biacore4000 instrument. […] HumanMTH1 was immobilized on Biacore CM5 chips at 25° C. and a flow rate of 10 μL/min using amine coupling at pH 5.5 and in presence of 1 μM MSC2567771B-1 according to Biacore's standard protocol. MTH1 was applied at a concentration of 10 μg/mL and depending on the duration of the injection time immobilization levels between 500 and 2,000 RU were obtained. Sample compounds were applied in form of titration series with a doubling of concentration at each subsequent injection. In general, 10 concentrations were injected covering a dilution range of 500 fold. Before and after each of these titration series the binding capability of the surface was controlled by the injection of the positive control S-Crizotinib at a fixed concentration of 2 μM. Kinetic titration experiments were performed at 25° C. with a flow rate of 30 μL/min, a sample contact time of 90 sec and a dissociation time of 420 sec in running buffer (20 mM Tris-HCl (Tris(hydroxymethyl)-aminomethane HCl) pH 7.40, 150 mM NaCl, 5 mM MgCl2, 1 mM DTT (dithiothreitol), 0.1 mM EGTA (ethylene glycol tetraacetic acid), 0.05% Tween 20) containing 2% DMSO (dimethyl sulfoxide). Buffer injections identical to the sample injections were executed at the beginning of the successive series for the purpose of double referencing. Solvent correction cycles (eight correction points, 1.4%-2.8% DMSO) were run at the same intervals. For surface conditioning ten start-up cycles (buffer injections) were run. Data points were collected at a sample rate of 10 Hz.
Data sets were processed and analyzed using the software Biacore4000 Evaluation, version 1.0. Solvent corrected and double-referenced association and dissociation phase data were fitted to a simple 1:1 interaction model with mass transport limitations.
Measured values are indicated as KD IC50 in the Table below.

[2] = target: T2, purified human recombinant MTH1 (human MTH1, residues 42-197) (Homo sapiens, UniProt P36639); assay: MTH1 enzymatic assay (luminescence-based, PPiLight); assay type: biochemical; settings: 6 μM 8-oxo-dGTP, Table 1, grouped
T2 construct: human MTH1, residues 42-197, Uniprot-ID: P36639, expressed in E. coli; made in house; host or cells: E. coli
Description: The IC50 value was determined by a MTH1 enzymatic assay. The assay comprises the principal steps of incubating a mixture of MTH1, the compound in question at different concentrations and 8-oxo-2′-deoxyguanosine-5′-triphosphate (8-oxo-dGTP) in assay buffer. Nucleotide triphosphate hydrolysis by MTH1, i.e. decomposition of 8-oxo-2′-deoxyguanosine-5′-triphosphate, produces 8-oxo-2′-deoxyguanosine-5′-monophosphate (8-oxo-dGMP) and pyrophosphate (PPi). The amount of generated pyrophosphate (PPi) is then measured by a bioluminescent reaction. In detail: The MTH1 (human mutT homologue 1) enzymatic assay is performed as a luminescence-based 384-well assay. […] The assay buffer contains 100 mM Tris-acetate pH 7.5, 40 mM NaCl, 10 mM Mg(OAc)2, 0.005% Tween 20 and 2 mM dithiothreitol (DTT). […] Then, in a second step, the substrate 8-oxo-dGTP is added and the reaction mixture is incubated for 30 minutes at 22° C. The pharmacologically relevant assay volume is 5 PI. The final concentrations in the assay during incubation of the reaction mixture are 0.1-0.2 nM, typically 0.1 nM, MTH1 and 6 μM 8-oxo-dGTP. After incubation of the reaction mixture, the generation of pyrophosphate (PPi) as a result of nucleotide triphosphate (8-oxo-dGTP) hydrolysis by MTH1 is detected using the PPiLight inorganic pyrophosphate assay kit (Lonza) (third step). 2 to 5 μl, such as 3 to 5 μl, typically 3 or 4 μl, for instance 4 μl, of a 1:1 mixture of PPiLight converting reagent (AMP) and PPiLight detection reagent are added to the reaction mixture. In the presence of pyrophosphate, the detection reagent catalyzes the conversion of AMP to ATP. Luciferase then produces light from the newly formed ATP and luciferin. The amount of light produced is directly proportional to the amount of PPi in the sample. Following signal development for 1 h the plates are analysed in an EnVision (PerkinElmer) microplate reader using the ultra sensitive luminescence option. Data are processed employing the Genedata Screener software. In particular, IC50 values are determined in the usual manner (using the Hill Equation) by fitting a dose-response curve to the data points using nonlinear regression analysis.
Hill Equation: Y=S0+(Sinf−S0)/(1+(10^logIC50/10^c)^n); Y: luminescence signal (response), S0: activity level at zero concentration of test compound, Sinf=activity level at infinite concentration, Hill coefficient n=measure of the slope at IC50, c=concentration in logarithmic units corresponding to the values on the x-axis of the dose response curve plot

SMILES | Kd [1] | IC50 [2]
CNc1cc(N2CCCCC2Cc2ccccc2OC)nc(N)n1 (single isomer, unassigned) [Example 107] | 1 to 100 nM | 1 to 100 nM
C[C@H]1C(c2ccccc2)CCN1c1cc(NC2CC2)nc(N)n1 (stereo in doubt) [Example 54, N4-Cyclopropyl-6-((2S,3R)-2-methyl-3-phenyl-pyrrolidin-1-yl)-pyrimidine-2,4-diamine] | 1 to 100 nM | 1 to 100 nM
C[C@H]1[C@H](c2ccccc2)CCN1c1cc(NC2CC2)nc(N)n1 (stereo in doubt) [Example 55, N4-Cyclopropyl-6-((2S,3S)-2-methyl-3-phenyl-pyrrolidin-1-yl)-pyrimidine-2,4-diamine] | 1 to 100 nM | 1 to 100 nM
C[C@@H]1[C@H](c2ccccc2)CCN1c1cc(NC2CC2)nc(N)n1 (stereo in doubt) [Example 56, N4-Cyclopropyl-6-((2R,3S)-2-methyl-3-phenyl-pyrrolidin-1-yl)-pyrimidine-2,4-diamine] | 1 to 100 nM | 1 to 100 nM
C[C@@H]1C(c2ccccc2)CCN1c1cc(NC2CC2)nc(N)n1 (stereo in doubt) [Example 57, N4-Cyclopropyl-6-((2R,3R)-2-methyl-3-phenyl-pyrrolidin-1-yl)-pyrimidine-2,4-diamine] | 1 to 100 nM | 1 to 100 nM
Nc1nc(NC2CC2)cc(N2CC[C@@H](O)C2)n1 [Example 29, (R)-1-(2-Amino-6-cyclopropylamino-pyrimidin-4-yl)-pyrrolidin-3-ol] | 1 to 100 nM | 1 to 100 nM
Nc1nc(NC2CC2)cc(N2CCCC2c2ccccc2)n1 (stereo not drawn) [Example 30, N4-Cyclopropyl-6-(2-phenyl-pyrrolidin-1-yl)-pyrimidine-2,4-diamine] | 1 to 100 nM | 1 to 100 nM
CC1CC2CCCCC2N1c1cc(NC2CC2)nc(N)n1 (stereo not drawn) [Example 31, N4-Cyclopropyl-6-(2-methyl-octahydro-indol-1-yl)-pyrimidine-2,4-diamine] | 1 to 100 nM | 1 to 100 nM
Nc1nc(NC2CC2)cc(N2CCC(O)(c3ccccc3)C2)n1 (stereo not drawn) [Example 32, 1-(2-Amino-6-cyclopropylamino-pyrimidin-4-yl)-3-phenyl-pyrrolidin-3-ol] | 1 to 100 nM | 1 to 100 nM
CC1CCCN1c1cc(NC2CC2)nc(N)n1 (stereo not drawn) [Example 33, N4-Cyclopropyl-6-(2-methyl-pyrrolidin-1-yl)-pyrimidine-2,4-diamine] | 1 to 100 nM | 1 to 100 nM
Nc1nc(NC2CC2)cc(N2CCc3ccccc32)n1 [Example 35, N4-Cyclopropyl-6-(2,3-dihydro-indol-1-yl)-pyrimidine-2,4-diamine] | 1 to 100 nM | 1 to 100 nM
CC1(O)CCN(c2cc(NC3CC3)nc(N)n2)C1 (stereo not drawn) [Example 43, 1-(2-Amino-6-cyclopropylamino-pyrimidin-4-yl)-3-methyl-pyrrolidin-3-ol] | 1 to 100 nM | 1 to 100 nM
Nc1nc(NC2CC2)cc(N2CC[C@H](O)C2)n1 [Example 44, (S)-1-(2-Amino-6-cyclopropylamino-pyrimidin-4-yl)-pyrrolidin-3-ol] | 1 to 100 nM | 1 to 100 nM
C[C@@H]1C[C@H](O)CN1c1cc(NC2CC2)nc(N)n1 [Example 45, (3S,5R)-1-(2-Amino-6-cyclopropylamino-pyrimidin-4-yl)-5-methyl-pyrrolidin-3-ol] | 1 to 100 nM | 1 to 100 nM
CNc1cc(N2CC(c3ccccc3)CC2=O)nc(N)n1 (stereo not drawn) [Example 96, 1-(2-Amino-6-methylamino-pyrimidin-4-yl)-4-phenyl-pyrrolidin-2-one] | – | > 100 nM
CNc1cc(N2C(=O)CC[C@H]2CO)nc(N)n1 [Example 99, (S)-1-(2-Amino-6-methylamino-pyrimidin-4-yl)-5-hydroxymethyl-pyrrolidin-2-one] | – | > 100 nM
CNc1cc(N2CCC(c3ccccc3)C2=O)nc(N)n1 (stereo not drawn) [Example 103, 1-(2-Amino-6-methylamino-pyrimidin-4-yl)-3-phenyl-pyrrolidin-2-one] | – | 1 to 100 nM
Nc1nc(NC2CC2)cc(N2C(=O)CCC2c2ccc(Cl)cc2)n1 (stereo not drawn) [Example 104, 1-(2-Amino-6-cyclopropylamino-pyrimidin-4-yl)-5-(4-chloro-phenyl)-pyrrolidin-2-one] | – | > 100 nM
Nc1nc(NC2CC2)cc(N2CCCC2C(=O)NCCc2ccc(S(=O)(=O)F)cc2)n1 (stereo not drawn) [Example 119, 4-(2-{[1-(2-Amino-6-cyclopropylamino-pyrimidin-4-yl)-pyrrolidine-2-carbonyl]-amino}-ethyl)-benzenesulfonyl fluoride] | – | 1 to 100 nM
Cc1ccc(CCNc2cc(N3CCC(F)(F)C3)nc(N)n2)cc1 [Example 145, 6-(3,3-Difluoro-pyrrolidin-1-yl)-N4-(2-p-tolyl-ethyl)-pyrimidine-2,4-diamine-formiate] | – | 1 to 100 nM

Continued, values first:

Kd [1] | IC50 [2] | SMILES
1 to 100 nM | 1 to 100 nM | CNc1cc(N2CCC[C@](O)(c3ccccc3)C2)nc(N)n1 (single isomer, unassigned) [Example 91]
1 to 100 nM | < 1 nM | Nc1nc(NC2CC2)cc(N2CCCC2Cc2ccccc2)n1 (stereo not drawn) [Example 34, 6-(2-Benzyl-pyrrolidin-1-yl)-N4-cyclopropyl-pyrimidine-2,4-diamine]
< 1 nM | < 1 nM | C[C@H]1C[C@@H](O)CN1c1cc(NC2CC2)nc(N)n1 [Example 46, (3R,5S)-1-(2-Amino-6-cyclopropylamino-pyrimidin-4-yl)-5-methyl-pyrrolidin-3-ol]
< 1 nM | < 1 nM | Nc1nc(NC2CC2)cc(N2CCC[C@@H]2Cc2ccccc2Cl)n1 [Example 47, 6-[(R)-2-(2-Chloro-benzyl)-pyrrolidin-1-yl]-N4-cyclopropyl-pyrimidine-2,4-diamine]
– | < 1 nM | CNc1cc(N2CCCC2C(C)(C)c2ccccc2)nc(N)n1 (stereo not drawn) [Example 83, N4-Methyl-6-[2-(1-methyl-1-phenylethyl)-pyrrolidin-1-yl]-pyrimidine-2,4-diamine]
– | < 1 nM | CNc1cc(N2CCCC2Cc2ccccc2C)nc(N)n1 (stereo not drawn) [Example 89, N4-Methyl-6-[2-(2-methyl-benzyl)-pyrrolidin-1-yl]-pyrimidine-2,4-diamine]
– | < 1 nM | CNc1cc(N2CCC[C@@H]2Cc2ccccc2OC)nc(N)n1 [Example 93, 6-[(R)-2-(2-Methoxy-benzyl)-pyrrolidin-1-yl]-N4-methyl-pyrimidine-2,4-diamine]
– | < 1 nM | CNc1cc(N2CCCC2C(C)C)nc(N)n1 (stereo not drawn) [Example 101, 6-(2-Isopropyl-pyrrolidin-1-yl)-N4-methyl-pyrimidine-2,4-diamine-formate]
– | < 1 nM | CNc1cc(N2CCCC2C2CCCC2)nc(N)n1 (stereo not drawn) [Example 102, 6-(2-Cyclopentyl-pyrrolidin-1-yl)-N4-methyl-pyrimidine-2,4-diamine]
– | < 1 nM | CNc1cc(N2CCCC2c2ccsc2)nc(N)n1 (stereo not drawn) [Example 111, N4-Methyl-6-(2-thiophen-3-yl-pyrrolidin-1-yl)-pyrimidine-2,4-diamine]

Source: patent publication US20180118721A1, “PYRIMIDINE DERIVATIVES” (Merck Patent GmbH, priority 2015, published 2018)
